# Read-outs that look alike come from different tables or passages of the source.
# Key:
# RCC = test system: RCC; set-up: method as in PMID 22056247; details: after first line therapy, cited from earlier work
# [1] = Pharmacokinetic analysis of blood samples (noncompartmental); format: in vivo, human; details: for AUC(0-t) / Cmax: human
# Protocol: Blood samples were collected pre-, 1, 2, 4, 6, 8, 12, and 24 h post-dose on Days 1 and 2 of Cycles 1 and 2. […] Noncompartmental PK parameters were calculated using WinNonlin (Pharsight, Mountain View, CA).
structure (smiles),measurement,setting,value
"CNC(=O)c1cc(Oc2ccc(NC(=O)Nc3ccc(Cl)c(C(F)(F)F)c3)cc2)ccn1 [sorafenib, reference compound]",mPFS,RCC; sorafenib arm,4.7 months
same,AUC(0-t),"[1]; blood, sorafenib, steady state (cycle 2), HCC patients, tivantinib 360 mg BID and sorafenib 400 mg BID, read-out: AUC0-12h",43300 ng·h/mL
same,AUC0-12h,"[1]; sorafenib, steady state (cycle 2), non-HCC patients, tivantinib 360 mg BID and sorafenib 400 mg BID","39,906 ± 20,604 ng*hr/mL"
"O=C1NC(=O)[C@@H](c2cn3c4c(cccc24)CCC3)[C@@H]1c1c[nH]c2ccccc12 [tivantinib, Tivantinib]",AUC(0-t),"[1]; in vivo, tivantinib, cycle 2, one HCC patient, tivantinib 240 mg BID with sorafenib 400 mg BID, read-out: AUC0-12 h",6690 ng·h/mL
same,Cmax,"[1]; in vivo, tivantinib, cycle 2, one HCC patient, tivantinib 240 mg BID with sorafenib 400 mg BID, read-out: Cmax",879 ng/mL
same,AUC(0-t),"[1]; in vivo, tivantinib, steady state (cycle 2), HCC patients, tivantinib 360 mg BID and sorafenib 400 mg BID, read-out: AUC0-12h",12400 ng·h/mL
same,Cmax,"[1]; in vivo, tivantinib, steady state (cycle 2), HCC patients, tivantinib 360 mg BID and sorafenib 400 mg BID, read-out: mean Cmax",1510 ng/mL
same,AUC(0-t),"[1]; in vivo, tivantinib, steady state (cycle 2), non-HCC patients, tivantinib 360 mg BID and sorafenib 400 mg BID, read-out: AUC0-12h",8740 ng·h/mL
same,Cmax,"[1]; in vivo, tivantinib, steady state (cycle 2), non-HCC patients, tivantinib 360 mg BID and sorafenib 400 mg BID, read-out: mean Cmax",1320 ng/mL
CNC(=O)c1ccccc1Sc1ccc2c(/C=C/c3ccccn3)n[nH]c2c1 [axitinib],mPFS,RCC; axitinib arm,6.7 months

# Source: article PMC4295023 (Investigational New Drugs, 2014)
